Assay results as given in patent publication US7753966B2, “Hair dye stabilizer” (Takasago International Corporation, priority 2006, dated 2010).

Experiments:
[1] = Color tone of liquid hair dye base first preparation after storage, visually observed by three panelists; type: physicochemical; conditions: for Color tone: room temperature; for concentration at which a stabilization effect was shown: stored at room temperature for 2 weeks, judged from full-color photographs
Description: 40 g of a liquid hair dye base first preparation obtained by adding thioglycerol to a liquid hair dye base (Bigen Speedy Color, manufactured by Hoyu Co. Ltd.) in an amount adjusted as shown in Table 2 was placed in a 100 ml shampoo bottle and, after purging with nitrogen gas was performed, the bottle was capped and stored at room temperature.
Immediately after the passage of a given period of storage time of the shampoo bottle in which the above liquid hair dye base first preparation was placed, the color tone of the liquid hair dye base first preparation was visually observed by three panelists. The color tones in the table show the color tones of the results observed by the largest number of the panelists (the same shall apply hereinafter). Moreover, photographs of change in color tone of the hair dye base first preparation immediately after the passage of the above given period are shown in FIG. 1 to FIG. 3. […]

[2] = Stability test: remaining dye in liquid hair dye base first preparation by HPLC; type: physicochemical; conditions: finding stated in text
Description: 50 g of a liquid hair dye base (Bigen Speedy Color, manufactured by Hoyu Co. Ltd.) was weighed into a separable flask, and 0.1 g of thioglycerol was added. After the above separable flask was purged with nitrogen gas, the whole was stirred under a flow of nitrogen gas. After the resultant was divided into 40 g each in a 100 ml shampoo bottle and purging with nitrogen gas was performed, the bottle was capped, thereby a liquid hair dye base first preparation being prepared.
The liquid hair dye base first preparation of Example 1 was stored in a constant-temperature tank set at room temperature or 40° C. for 30 days. This first preparation was used as a sample.
About 4 g of an acetonitrile solution containing 500 ppm of benzonitrile was placed in a 10 mL sample vial and then the amount was accurately measured. About 0.2 g of the above sample was added thereto and the amount was accurately measured, followed by thorough mixing. The liquid in the sample vial was sucked by means of a syringe and was placed in a vial under filtration. Then, it was analyzed by means of a column ODS-80A in high performance liquid chromatography (HP 1100 manufactured by Hewlett-Packard Company) to measure amounts of remaining dyes in the sample.
A liquid hair dye base first preparation was prepared by performing the same operations as in Example 1 except that thioglycolic acid was used instead of thioglycerol. […]

[3] = 0.1 ppm (0.00001 %) added, 1 Day
[4] = 0.1 ppm (0.00001 %) added, 2 Weeks
[5] = 0.1 ppm (0.00001 %) added, 4 Days
[6] = 1 ppm (0.0001 %) added, 2 Weeks
[7] = 10 ppm (0.001 %) added, 2 Weeks
[8] = 100 ppm (0.01 %) added, 2 Weeks
[9] = 1000 ppm (0.1 %) added, 2 Weeks

| Structure (SMILES) | Color tone ([1]; 0.0001 ppm added, 1 Day) | Color tone ([1]; 0.0001 ppm added, 2 Weeks) | Color tone ([1]; 0.0001 ppm added, 4 Days) | Color tone ([1]; 0.001 ppm added, 1 Day) | Color tone ([1]; 0.001 ppm added, 2 Weeks) | Color tone ([1]; 0.001 ppm added, 4 Days) | Color tone ([1]; 0.01 ppm added, 1 Day) | Color tone ([1]; 0.01 ppm added, 2 Weeks) | Color tone ([1]; 0.01 ppm added, 4 Days) | Color tone [1, 3] | Color tone [1, 4] | Color tone [1, 5] | Color tone ([1]; 1 ppm (0.0001 %) added, 1 Day) | Color tone [1, 6] | Color tone ([1]; 1 ppm (0.0001 %) added, 4 Days) | Color tone ([1]; 10 ppm (0.001 %) added, 1 Day) | Color tone [1, 7] | Color tone ([1]; 10 ppm (0.001 %) added, 4 Days) | Color tone ([1]; 100 ppm (0.01 %) added, 1 Day) | Color tone [1, 8] | further results |
| --- | --- | --- | --- | --- | --- | --- | --- | --- | --- | --- | --- | --- | --- | --- | --- | --- | --- | --- | --- | --- | --- |
| OCCS [thioglycol, 2-mercaptoethanol] | black | brown | black | black | brown | black | black | brown | black | black | brown | black | black | brown | black | black | brown | black | black | brown | Color tone ([1]; 100 ppm (0.01 %) added, 4 Days): black; Color tone ([1]; 1000 ppm (0.1 %) added, 1 Day): brown; Color tone [1, 9]: orange; Color tone ([1]; 1000 ppm (0.1 %) added, 4 Days): orange; Color tone ([1]; 10000 ppm (1 %) added, 1 Day): orange; Color tone ([1]; 10000 ppm (1 %) added, 2 Weeks): orange; Color tone ([1]; 10000 ppm (1 %) added, 4 Days): orange; concentration at which a stabilization effect was shown [1]: ≤ 0.0001 ppm |
| CC(C)=CCC/C(C)=C/CS [thiogeraniol, (E)-3,7-dimethyl-2,6-octadien-1-thiol] | black | brown | black | black | brown | black | black | brown | black | black | brown | black | black | brown | black | black | brown | black | black | brown | Color tone ([1]; 100 ppm (0.01 %) added, 4 Days): black; Color tone ([1]; 1000 ppm (0.1 %) added, 1 Day): brown; Color tone [1, 9]: brown; Color tone ([1]; 1000 ppm (0.1 %) added, 4 Days): black; Color tone ([1]; 10000 ppm (1 %) added, 1 Day): orange; Color tone ([1]; 10000 ppm (1 %) added, 2 Weeks): orange; Color tone ([1]; 10000 ppm (1 %) added, 4 Days): orange; concentration at which a stabilization effect was shown [1]: ≤ 0.0001 ppm |
| O=C(O)CS [thioglycolic acid] |  |  |  |  |  |  |  |  |  |  |  |  |  |  |  |  |  |  |  |  | effect on stability of p-nitro-o-phenylenediamine [2]: promotes the deterioration; effect on stability of resorcin [2]: promotes the deterioration |
